# Where a SMILES comes first, the peptide text is derived from it. [ ]: non-standard residue; d: D form. Arg(Me) = CNC(=N)NCCC[C@H](N)C(=O)O; Hyp = O=C(O)[C@@H]1C[C@@H](O)CN1; azaGly = NNC(=O)O
# Assays:
# [1] = Pharmacokinetics in rats after SC and IV administration; details: rat, in vivo
# Experimental: The PK of API-MA was studied in rats after SC and IV administration.
# The PK linearity of API-MA was also investigated in rats after IV administration. The plasma C5min and AUC(0-24) values increased dose-proportionally. […] The elimination T1/2 values were 0.4 hours at 0.01 and 0.1 mg/kg and 0.5 hours at 1 mg/kg. These findings indicate that the PK of API-FB was linear in rats after single IV administration over the dose range of 0.01 to 1 mg/kg. The greater than dose-proportional increase in the first-pass kinetics with SC administration would indicate nonlinear PK in rats after SC administration.
# [2] = Pharmacokinetics in dogs after SC and IV administration; details: dog, in vivo
# Text: The PK of API-MA was studied in dogs after SC and IV administration.
# [3] = Pharmacokinetics in monkeys after SC and IV administration; details: monkey, in vivo
# Text: The PK of API-MA was studied in monkeys after SC and IV administration.
# [4] = Multiple-dose PK, 2-hour SC infusion once daily for 14 days, Japanese prostate cancer patients; format: in vivo, human; details: male, human, in vivo, sc; for dose excreted: Mean percent cumulative urinary excretion at 24 hours postdose
# Experimental: It was an open-label, ascending dose study of API-MA administered via 2-hour SC infusion once daily for 14 days that was expected to suppress testosterone in Japanese hormone-naïve prostate cancer patients. Six patients received API-MA at doses of 0.5 mg (3 patients) and 1.0 mg (3 patients) a day for 14 days.
# To measure plasma concentrations of API-MA, blood specimens were collected at the following times: Day 1 (predose and 2, 4, 6, 10 hours postdose); days 2, 4, 6, 8, 10, and 12 (predose); day 14 (predose and 2, 4, 6, 10, 24, 48 hours postdose); day 21; and day 28. To measure urinary excretion of API-MA, urine specimens were collected at the following times: Day 1 (predose and 0 to 4, 4 to 8, 8 to 12, 12 to 24 hours postdose) and day 14 (0 to 4, 4 to 8, 8 to 12, 12 to 24 hours postdose).
# [5] = iv, 1 mg/kg, T½ γ (elimination)
compound,measurement,setting,value
"CNC(=N)NCCC[C@H](NC(=O)[C@H](CC(C)C)NC(=O)NNC(=O)[C@H](Cc1ccccc1)NC(=O)[C@@H](NC(=O)[C@H](CC(N)=O)NC(=O)[C@@H]1C[C@@H](O)CN1C(=O)[C@@H](Cc1ccc(O)cc1)NC(C)=O)[C@@H](C)O)C(=O)N[C@@H](Cc1c[nH]c2ccccc12)C(N)=O [Compound 1, 2-(N-Acetyl-D-tyrosyl-trans-4-hydroxy-L-prolyl-L-asparaginyl-L-threonyl-L-phenylalanyl)-hydrazinocarbonyl-L-leucyl-Nω-methyl-L-arginyl-L-tryptophanamide] (Ac-[dY][Hyp]NTF[azaGly]L[Arg(Me)]W-NH2)",AUC(0-t),"[1]; iv, 1 mg/kg",1460 ± 143 ng·h/mL
same,Cmax at 5 min,"[1]; iv, 1 mg/kg",2670 ± 234 ng/mL
same,AUC(0-t),"[1]; sc, 0.1 mg/kg",123 ± 9 ng·h/mL
same,Cmax,"[1]; sc, 0.1 mg/kg",90 ± 12.5 ng/mL
same,Tmax,"[1]; sc, 0.1 mg/kg",0.5 h
same,AUC(0-t),"[1]; sc, 1 mg/kg",804 ± 133 ng·h/mL
same,Cmax,"[1]; sc, 1 mg/kg",381 ± 75.5 ng/mL
same,Tmax,"[1]; sc, 1 mg/kg",0.9 ± 0.2 h
same,bioavailability,"[1]; sc, 1 mg/kg",55.3 ± 8.6%
same,AUC(0-t),"[1]; sc, 10 mg/kg",309 ± 70 ng·h/mL
same,Cmax,"[1]; sc, 10 mg/kg",285 ± 58.6 ng/mL
same,Tmax,"[1]; sc, 10 mg/kg",0.3 h
same,AUC(0-t),"[2]; iv, 1 mg/kg",3090 ± 80 ng·h/mL
same,Cmax at 5 min,"[2]; iv, 1 mg/kg",4250 ± 543 ng/mL
same,half-life,"[2]; iv, 1 mg/kg, T½ α",0.2 h
same,half-life,"[2]; iv, 1 mg/kg, T½ β",1.1 h
same,half-life,[2]; [5],3 ± 0.1 h
same,AUC(0-t),"[2]; sc, 0.1 mg/kg",252 ± 34 ng·h/mL
same,Cmax,"[2]; sc, 0.1 mg/kg",86.6 ± 19 ng/mL
same,Tmax,"[2]; sc, 0.1 mg/kg",0.8 ± 0.3 h
same,bioavailability,"[2]; sc, 0.1 mg/kg",81.5 ± 11.5%
same,half-life,"[2]; sc, 0.1 mg/kg, T½ β",1.4 ± 0.2 h
same,AUC(0-t),"[2]; sc, 1 mg/kg",2600 ± 219 ng·h/mL
same,Cmax,"[2]; sc, 1 mg/kg",883 ± 251 ng/mL
same,Tmax,"[2]; sc, 1 mg/kg",0.8 ± 0.3 h
same,bioavailability,"[2]; sc, 1 mg/kg",84 ± 8.1%
same,half-life,"[2]; sc, 1 mg/kg, T½ β",1.4 ± 0.3 h
same,half-life,"[2]; sc, 1 mg/kg, T½ γ",2.6 ± 0.2 h
same,AUC(0-t),"[2]; sc, 10 mg/kg",28600 ng·h/mL
same,Cmax,"[2]; sc, 10 mg/kg",8840 ± 1200 ng/mL
same,Tmax,"[2]; sc, 10 mg/kg",1 h
same,bioavailability,"[2]; sc, 10 mg/kg",92.7 ± 7.7%
same,half-life,"[2]; sc, 10 mg/kg, T½ β",1.5 ± 0.4 h
same,half-life,"[2]; sc, 10 mg/kg, T½ γ",2.6 ± 0.1 h
same,AUC(0-t),"[3]; iv, 1 mg/kg",3160 ± 594 ng·h/mL
same,Cmax at 5 min,"[3]; iv, 1 mg/kg",5030 ± 787 ng/mL
same,half-life,"[3]; iv, 1 mg/kg, T½ α",0.3 h
same,half-life,"[3]; iv, 1 mg/kg, T½ β",1.2 ± 0.1 h
same,half-life,[3]; [5],3.2 ± 0.1 h
same,AUC(0-t),"[3]; sc, 0.1 mg/kg",295 ± 27 ng·h/mL
same,Cmax,"[3]; sc, 0.1 mg/kg",123 ± 27.3 ng/mL
same,Tmax,"[3]; sc, 0.1 mg/kg",0.4 ± 0.1 h
same,bioavailability,"[3]; sc, 0.1 mg/kg",94.9 ± 12.4%
same,half-life,"[3]; sc, 0.1 mg/kg, T½ β",1.6 ± 0.3 h
same,AUC(0-t),"[3]; sc, 1 mg/kg",2790 ± 262 ng·h/mL
same,Cmax,"[3]; sc, 1 mg/kg",1320 ± 316 ng/mL
same,Tmax,"[3]; sc, 1 mg/kg",0.3 h
same,bioavailability,"[3]; sc, 1 mg/kg",90.1 ± 15.4%
same,half-life,"[3]; sc, 1 mg/kg, T½ β",1.4 ± 0.2 h
same,half-life,"[3]; sc, 1 mg/kg, T½ γ",2.5 ± 0.2 h
same,AUC(0-t),"[3]; sc, 10 mg/kg",31600 ng·h/mL
same,Cmax,"[3]; sc, 10 mg/kg",12100 ng/mL
same,Tmax,"[3]; sc, 10 mg/kg",0.4 ± 0.1 h
same,bioavailability,"[3]; sc, 10 mg/kg",102 ± 14.3%
same,half-life,"[3]; sc, 10 mg/kg, T½ β",1.5 ± 0.3 h
same,half-life,"[3]; sc, 10 mg/kg, T½ γ",2.6 ± 0.3 h
same,Mean percent cumulative urinary excretion at 24 hours postdose,[4]; 0.5 mg/day,8.99%
same,dose excreted,[4]; 0.5 mg/day,6.5%
same,Mean percent cumulative urinary excretion at 24 hours postdose,[4]; 1 mg/day,9.41%
same,dose excreted,[4]; 1 mg/day,8.86%
